Experimental findings from ChEMBL document CHEMBL2150859, “Design, synthesis, and evaluation of 3,5-disubstituted 7-azaindoles as Trk inhibitors with anticancer and antiangiogenic activities” (J Med Chem, 2012) are described below.

Activity calls are given as the source filed them. No cut-off for these calls is given here.

Experiment [1] deals with Hepatocyte growth factor receptor (Homo sapiens) (UniProt P08581). The experiment in a line: Binding affinity to MET at 1 uM by high throughput binding assay relative to control.
Experiment [2] has as its target Serine/threonine-protein kinase PLK3 (Homo sapiens) (UniProt Q9H4B4). Kind of experiment: Binding affinity to PLK3 at 1 uM by high throughput binding assay relative to control.
For experiment [3], the target named is Aurora kinase B (Homo sapiens) (UniProt Q96GD4). The experiment in a line: Binding affinity to AURKB at 1 uM by high throughput binding assay relative to control.
In experiment [4] the target is cAMP-dependent protein kinase catalytic subunit alpha (Homo sapiens) (UniProt P17612). Kind of experiment: Binding affinity to PKACalpha at 1 uM by high throughput binding assay relative to control.
The target in experiment [5] is Serine/threonine-protein kinase pim-1 (Homo sapiens) (UniProt P11309). The experiment in a line: Binding affinity to PIM1 at 1 uM by high throughput binding assay relative to control.
Experiment [6] deals with MCF7. The experiment in a line: Induction of apoptosis in human MCF7 cells assessed as nuclear fragmentation at 10 uM after 24 hrs by DAPI staining. It counts as functional, cell-based.
Experiment [7] relates to MCF7. The experiment in a line: Induction of apoptosis in human MCF7 cells assessed as increase in cleaved caspase-3 expression at 10 uM after 24 hrs by immunofluorescence staining method. It counts as functional, cell-based.
The subject of experiment [8] is MCF7. Kind of experiment: Induction of apoptosis in human MCF7 cells assessed as decrease in Bcl-2 expression at 10 uM after 24 hrs by immunofluorescence staining method. It counts as functional, cell-based.
Experiment [9] has as its system MCF7. The experiment in a line: Cytotoxicity against human MCF7 cells assessed as growth inhibition at 0.1 to 50 uM after 48 hrs by MTT assay. Format: functional. (Tetrazolium dyes change colour on reduction, which living cells bring about.)
The target of experiment [10] is Serine/threonine-protein kinase PLK1 (Homo sapiens) (UniProt P53350). The experiment in a line: Binding affinity to PLK1 at 1 uM by high throughput binding assay relative to control.
The target of experiment [11] is T1, High affinity nerve growth factor receptor (Homo sapiens, UniProt P04629). To be noted: MCF7, 0.1 to 10 uM.
Target sequence in this assay (P04629 33-796 limits assumed): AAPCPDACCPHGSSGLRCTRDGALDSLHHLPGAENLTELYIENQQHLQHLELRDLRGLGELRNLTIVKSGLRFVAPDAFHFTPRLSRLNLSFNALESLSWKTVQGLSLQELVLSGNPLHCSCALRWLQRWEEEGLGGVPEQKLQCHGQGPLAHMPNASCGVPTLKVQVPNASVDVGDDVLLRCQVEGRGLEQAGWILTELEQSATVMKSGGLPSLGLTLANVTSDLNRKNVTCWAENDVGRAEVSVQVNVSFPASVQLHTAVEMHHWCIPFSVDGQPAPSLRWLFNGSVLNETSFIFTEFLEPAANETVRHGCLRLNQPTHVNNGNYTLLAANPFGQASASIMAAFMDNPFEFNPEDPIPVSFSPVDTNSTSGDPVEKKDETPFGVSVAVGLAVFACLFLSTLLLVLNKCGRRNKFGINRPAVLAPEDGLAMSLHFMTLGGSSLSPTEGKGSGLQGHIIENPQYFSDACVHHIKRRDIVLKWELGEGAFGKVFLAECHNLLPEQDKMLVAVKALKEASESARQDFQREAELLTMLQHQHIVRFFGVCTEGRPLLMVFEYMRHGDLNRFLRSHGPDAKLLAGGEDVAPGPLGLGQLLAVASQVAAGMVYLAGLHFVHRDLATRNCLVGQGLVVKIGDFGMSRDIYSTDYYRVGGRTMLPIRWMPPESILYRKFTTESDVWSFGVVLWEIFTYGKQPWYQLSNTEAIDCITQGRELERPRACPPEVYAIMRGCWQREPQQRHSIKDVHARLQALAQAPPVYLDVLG
Description: Inhibition of TRKA-induced AKT phosphorylation in human MCF7 cells at 0.1 to 10 uM by Western blot analysis
The test system of experiment [12] is HUVEC. Kind of experiment: Antiangiogenic activity against HUVEC assessed as inhibition of VEGF-induced tube formation after 10 hrs by phase-contrast microscopic analysis. It counts as functional, cell-based. To be noted: Homo sapiens.
Experiment [13] concerns the target RAC-beta serine/threonine-protein kinase (Homo sapiens) (UniProt P31751). Kind of experiment: Binding affinity to AKT2 at 1 uM by high throughput binding assay relative to control.
Experiment [14] has as its target Mitogen-activated protein kinase 14 (Homo sapiens) (UniProt Q16539). Kind of experiment: Binding affinity to P38alpha at 1 uM by high throughput binding assay relative to control.
Experiment [15] deals with Fibroblast growth factor receptor 2 (Homo sapiens) (UniProt P21802). The experiment in a line: Binding affinity to FGFR2 at 1 uM by high throughput binding assay relative to control.
For experiment [16], the system named is MCF7. The experiment in a line: cells. Particulars: Homo sapiens, MCF7, 48 h.
Description: (§1) Cytotoxicity against human MCF7 cells after 48 hrs by MTT assay
Experiment [17] addresses Serine/threonine-protein kinase B-raf (Homo sapiens) (UniProt P15056). Kind of experiment: Binding affinity to BRAF at 1 uM by high throughput binding assay relative to control.
For experiment [18], the system named is MCF7. The experiment in a line: Induction of apoptosis in human MCF7 cells assessed as nuclear condensation at 10 uM after 24 hrs by DAPI staining. It counts as functional, cell-based.
In experiment [19] the target is BDNF/NT-3 growth factors receptor (Homo sapiens) (UniProt Q16620). Kind of experiment: Binding affinity to TRKB at 1 uM by high throughput binding assay relative to control.
The target of experiment [20] is Glycogen synthase kinase-3 beta (Homo sapiens) (UniProt P49841). The experiment in a line: Binding affinity to GSK3beta at 1 uM by high throughput binding assay relative to control.
The subject of a further experiment is SK-BR-3. Kind of experiment: Cytotoxicity against human SKBR3 cells after 48 hrs by MTT assay. It counts as functional, cell-based.
Experiment [21] deals with Aurora kinase A (Homo sapiens) (UniProt O14965). Kind of experiment: Binding affinity to AURKA at 1 uM by high throughput binding assay relative to control.
Experiment [22] concerns the target T2, Phosphatidylinositol 4,5-bisphosphate 3-kinase catalytic subunit alpha isoform (Homo sapiens, UniProt P42336). The experiment in a line: Binding affinity to PI3KCA at 1 uM by high throughput binding assay relative to control.
Experiment [23] addresses Cyclin-dependent kinase 19 (Homo sapiens) (UniProt Q9BWU1). Kind of experiment: Binding affinity to CDK11 at 1 uM by high throughput binding assay relative to control.
Experiment [24] addresses Focal adhesion kinase 1 (Homo sapiens) (UniProt Q05397). The experiment in a line: Binding affinity to FAK at 1 uM by high throughput binding assay relative to control.
In experiment [25] the test system is MCF7. The experiment in a line: Inhibition of hypoxia-induced HIF1alpha expression in human MCF7 cells after 6 hrs. It counts as functional, cell-based.
Experiment [26] concerns the target 3-phosphoinositide-dependent protein kinase 1 (Homo sapiens) (UniProt O15530). Kind of experiment: Binding affinity to PDPK1 at 1 uM by high throughput binding assay relative to control.
In experiment [27] the target is Tyrosine-protein kinase JAK2 (Homo sapiens) (UniProt O60674). Kind of experiment: Binding affinity to JAK2 at 1 uM by high throughput binding assay relative to control.
Experiment [28] addresses T1, High affinity nerve growth factor receptor. Particulars: MCF7, 0.1 to 10 uM. This is another data set of the same source.
Target sequence in this assay (P04629 33-796 limits assumed): as above
Description: Inhibition of TRKA phosphorylation in human MCF7 cells at 0.1 to 10 uM by Western blot analysis
The subject of experiment [29] is HUVEC. The experiment in a line: Antiangiogenic activity in HUVEC assessed as inhibition of wound-induced cell migration after 16 hrs. It counts as functional, cell-based. Particulars: Homo sapiens.
Experiment [30] has as its target Dual specificity mitogen-activated protein kinase kinase 2 (Homo sapiens) (UniProt P36507). Kind of experiment: Binding affinity to MEK2 at 1 uM by high throughput binding assay relative to control.
The test system of experiment [31] is MCF7. The experiment in a line: Induction of apoptosis in human MCF7 cells assessed as increase in Bax expression at 10 uM after 24 hrs by immunofluorescence staining method. Format: functional, cell-based.
For experiment [32], the target named is T3, Mast/stem cell growth factor receptor Kit (Homo sapiens, UniProt P10721). The experiment in a line: Binding affinity to KIT at 1 uM by high throughput binding assay relative to control.
In experiment [33] the target is Platelet-derived growth factor receptor alpha (Homo sapiens) (UniProt P16234). Kind of experiment: Binding affinity to PDGFRalpha at 1 uM by high throughput binding assay relative to control.
The target of experiment [34] is Serine/threonine-protein kinase PAK 1 (Homo sapiens) (UniProt Q13153). The experiment in a line: Binding affinity to PAK1 at 1 uM by high throughput binding assay relative to control.
Experiment [35] addresses T3, Mast/stem cell growth factor receptor Kit. Kind of experiment: Inhibition of KIT by radiometric kinase assay.
Experiment [36] has as its system MCF7. Kind of experiment: Induction of apoptosis in human MCF7 cells assessed as increase in cytochrome C expression at 10 uM after 24 hrs by immunofluorescence staining method. It counts as functional, cell-based.
The target of experiment [37] is Hypoxia-inducible factor 1-alpha (Homo sapiens) (UniProt Q16665). The experiment in a line: Inhibition of HIF1alpha-mediated VEGF production in human MCF7 cells under hypoxic condition at 0.1 to 10 uM after 6 hrs. Format: cell-based.
The subject of experiment [38] is MCF7. Particulars: Homo sapiens.
Description: as §1
The target of experiment [39] is Mitogen-activated protein kinase 3 (Homo sapiens) (UniProt P27361). Kind of experiment: Binding affinity to ERK1 at 1 uM by high throughput binding assay relative to control.
In experiment [40] the target is Epidermal growth factor receptor (Homo sapiens) (UniProt P00533). Kind of experiment: Binding affinity to EGFR at 1 uM by high throughput binding assay relative to control.
In experiment [41] the test system is MCF7. The experiment in a line: Induction of apoptosis in human MCF7 cells assessed as DNA strand breaks at 10 uM after 24 hrs by TUNEL assay. It counts as functional, cell-based.
Experiment [42] concerns the target T1, High affinity nerve growth factor receptor. The experiment in a line: Inhibition of TRKA assessed as [gamma33P]ATP incorporation into substrate.
Target sequence in this assay (P04629 whole entry): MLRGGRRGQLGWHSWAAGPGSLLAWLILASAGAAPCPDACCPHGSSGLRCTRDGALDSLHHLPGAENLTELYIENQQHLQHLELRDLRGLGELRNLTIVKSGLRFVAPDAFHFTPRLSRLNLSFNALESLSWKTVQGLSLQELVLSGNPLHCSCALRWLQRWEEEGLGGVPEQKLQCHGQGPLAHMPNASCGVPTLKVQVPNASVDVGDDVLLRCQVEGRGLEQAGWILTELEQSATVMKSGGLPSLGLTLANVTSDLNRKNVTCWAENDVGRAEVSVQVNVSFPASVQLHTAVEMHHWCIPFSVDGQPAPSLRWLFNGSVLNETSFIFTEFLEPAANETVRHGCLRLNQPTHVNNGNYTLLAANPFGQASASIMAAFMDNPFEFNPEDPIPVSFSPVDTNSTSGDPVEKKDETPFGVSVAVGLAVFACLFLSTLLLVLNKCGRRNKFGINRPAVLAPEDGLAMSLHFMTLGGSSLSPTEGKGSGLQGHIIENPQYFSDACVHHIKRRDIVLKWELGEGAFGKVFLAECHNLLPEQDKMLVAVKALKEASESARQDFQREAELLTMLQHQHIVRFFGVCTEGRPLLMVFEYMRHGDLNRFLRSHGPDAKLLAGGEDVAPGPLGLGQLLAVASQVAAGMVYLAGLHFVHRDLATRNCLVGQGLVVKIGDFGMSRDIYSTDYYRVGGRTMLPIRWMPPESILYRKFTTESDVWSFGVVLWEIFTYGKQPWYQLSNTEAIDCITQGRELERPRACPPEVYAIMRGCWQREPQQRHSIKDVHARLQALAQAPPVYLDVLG
Experiment [43] concerns the target Rho-associated protein kinase 2 (Homo sapiens) (UniProt O75116). Kind of experiment: Binding affinity to ROCK2 at 1 uM by high throughput binding assay relative to control.
Experiment [44] deals with RAC-alpha serine/threonine-protein kinase (Homo sapiens) (UniProt P31749). Kind of experiment: Binding affinity to AKT1 at 1 uM by high throughput binding assay relative to control.
The target of experiment [45] is Tyrosine-protein kinase ABL1 (Homo sapiens) (UniProt P00519). The experiment in a line: Binding affinity to ABL1 at 1 uM by high throughput binding assay relative to control.
In experiment [46] the target is Dual specificity mitogen-activated protein kinase kinase 1 (Homo sapiens) (UniProt Q02750). Kind of experiment: Binding affinity to MEK1 at 1 uM by high throughput binding assay relative to control.
The target of experiment [47] is T2, Phosphatidylinositol 4,5-bisphosphate 3-kinase catalytic subunit alpha isoform. Kind of experiment: Binding affinity to PI3Kalpha at 10 uM by high throughput binding assay relative to control.
Experiment [48] has as its target T1, High affinity nerve growth factor receptor. The experiment in a line: Binding affinity to TRKA by high throughput assay.
Target sequence in this assay (P04629 whole entry): as above
Experiment [49] deals with T2, Phosphatidylinositol 4,5-bisphosphate 3-kinase catalytic subunit alpha isoform. The experiment in a line: Binding affinity to PI3Kalpha by high throughput assay.
Experiment [50] deals with T1, High affinity nerve growth factor receptor. The experiment in a line: Binding affinity to TRKA at 10 uM by high throughput binding assay relative to control.
Target sequence in this assay (P04629 33-796 limits assumed): as the sequence (P04629 33-796 limits assumed) above
Experiment [51] in a line: Selectivity ratio of Kd for PI3Kalpha to Kd for TRKA.

T2 sequence (P42336 whole entry, canonical isoform): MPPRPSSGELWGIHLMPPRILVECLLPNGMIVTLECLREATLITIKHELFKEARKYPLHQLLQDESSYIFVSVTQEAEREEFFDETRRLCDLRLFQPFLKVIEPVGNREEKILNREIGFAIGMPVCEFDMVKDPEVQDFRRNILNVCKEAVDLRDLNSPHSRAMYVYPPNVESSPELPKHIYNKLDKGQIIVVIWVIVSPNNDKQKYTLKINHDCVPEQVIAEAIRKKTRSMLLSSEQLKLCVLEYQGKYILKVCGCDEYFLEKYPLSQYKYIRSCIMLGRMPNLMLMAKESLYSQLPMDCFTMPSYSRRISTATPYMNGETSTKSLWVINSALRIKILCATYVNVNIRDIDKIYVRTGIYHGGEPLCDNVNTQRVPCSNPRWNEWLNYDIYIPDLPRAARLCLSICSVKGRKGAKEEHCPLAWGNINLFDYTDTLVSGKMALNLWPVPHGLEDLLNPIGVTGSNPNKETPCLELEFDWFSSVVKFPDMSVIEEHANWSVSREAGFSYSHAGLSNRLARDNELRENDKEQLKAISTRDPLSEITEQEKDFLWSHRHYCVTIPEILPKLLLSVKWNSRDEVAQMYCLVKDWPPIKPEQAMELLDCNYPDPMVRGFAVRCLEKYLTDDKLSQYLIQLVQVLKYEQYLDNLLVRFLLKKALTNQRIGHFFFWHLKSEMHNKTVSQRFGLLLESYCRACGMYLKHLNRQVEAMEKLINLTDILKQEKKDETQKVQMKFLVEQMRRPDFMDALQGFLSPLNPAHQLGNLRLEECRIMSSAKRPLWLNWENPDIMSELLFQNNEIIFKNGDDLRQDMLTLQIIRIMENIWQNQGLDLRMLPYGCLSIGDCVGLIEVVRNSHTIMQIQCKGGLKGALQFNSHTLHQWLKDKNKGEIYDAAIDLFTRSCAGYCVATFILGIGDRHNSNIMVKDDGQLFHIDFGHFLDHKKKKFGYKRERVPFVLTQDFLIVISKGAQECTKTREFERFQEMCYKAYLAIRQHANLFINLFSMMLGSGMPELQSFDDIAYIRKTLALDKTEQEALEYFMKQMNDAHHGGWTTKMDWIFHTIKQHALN
T3 sequence (P10721 whole entry): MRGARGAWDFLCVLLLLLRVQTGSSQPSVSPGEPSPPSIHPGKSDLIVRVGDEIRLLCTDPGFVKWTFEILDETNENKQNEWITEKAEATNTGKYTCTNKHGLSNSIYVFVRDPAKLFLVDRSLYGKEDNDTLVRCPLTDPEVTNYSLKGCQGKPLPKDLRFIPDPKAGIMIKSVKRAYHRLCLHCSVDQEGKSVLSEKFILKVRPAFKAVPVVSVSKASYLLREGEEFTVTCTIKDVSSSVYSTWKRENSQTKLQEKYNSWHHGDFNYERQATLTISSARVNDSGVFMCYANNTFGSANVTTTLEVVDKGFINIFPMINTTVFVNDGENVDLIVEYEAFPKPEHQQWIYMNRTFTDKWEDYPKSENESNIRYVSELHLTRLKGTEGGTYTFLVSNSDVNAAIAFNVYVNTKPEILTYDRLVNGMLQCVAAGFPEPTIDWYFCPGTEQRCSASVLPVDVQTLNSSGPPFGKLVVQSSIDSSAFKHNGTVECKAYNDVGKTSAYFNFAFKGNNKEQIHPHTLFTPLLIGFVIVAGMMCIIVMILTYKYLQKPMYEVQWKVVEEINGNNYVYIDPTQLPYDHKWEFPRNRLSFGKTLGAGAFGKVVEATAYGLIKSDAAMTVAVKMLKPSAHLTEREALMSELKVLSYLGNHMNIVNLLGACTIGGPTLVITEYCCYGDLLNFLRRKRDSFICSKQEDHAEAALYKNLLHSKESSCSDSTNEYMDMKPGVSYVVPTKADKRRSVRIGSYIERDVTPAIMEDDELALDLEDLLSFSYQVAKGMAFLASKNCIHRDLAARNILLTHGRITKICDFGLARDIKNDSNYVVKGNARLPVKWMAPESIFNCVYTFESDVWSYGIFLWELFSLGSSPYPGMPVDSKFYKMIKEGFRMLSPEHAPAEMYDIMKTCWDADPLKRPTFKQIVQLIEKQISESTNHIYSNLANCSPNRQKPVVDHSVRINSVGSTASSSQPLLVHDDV
Sequence of Hypoxia-inducible factor 1-alpha (Homo sapiens) (Q16665 whole entry, looked up): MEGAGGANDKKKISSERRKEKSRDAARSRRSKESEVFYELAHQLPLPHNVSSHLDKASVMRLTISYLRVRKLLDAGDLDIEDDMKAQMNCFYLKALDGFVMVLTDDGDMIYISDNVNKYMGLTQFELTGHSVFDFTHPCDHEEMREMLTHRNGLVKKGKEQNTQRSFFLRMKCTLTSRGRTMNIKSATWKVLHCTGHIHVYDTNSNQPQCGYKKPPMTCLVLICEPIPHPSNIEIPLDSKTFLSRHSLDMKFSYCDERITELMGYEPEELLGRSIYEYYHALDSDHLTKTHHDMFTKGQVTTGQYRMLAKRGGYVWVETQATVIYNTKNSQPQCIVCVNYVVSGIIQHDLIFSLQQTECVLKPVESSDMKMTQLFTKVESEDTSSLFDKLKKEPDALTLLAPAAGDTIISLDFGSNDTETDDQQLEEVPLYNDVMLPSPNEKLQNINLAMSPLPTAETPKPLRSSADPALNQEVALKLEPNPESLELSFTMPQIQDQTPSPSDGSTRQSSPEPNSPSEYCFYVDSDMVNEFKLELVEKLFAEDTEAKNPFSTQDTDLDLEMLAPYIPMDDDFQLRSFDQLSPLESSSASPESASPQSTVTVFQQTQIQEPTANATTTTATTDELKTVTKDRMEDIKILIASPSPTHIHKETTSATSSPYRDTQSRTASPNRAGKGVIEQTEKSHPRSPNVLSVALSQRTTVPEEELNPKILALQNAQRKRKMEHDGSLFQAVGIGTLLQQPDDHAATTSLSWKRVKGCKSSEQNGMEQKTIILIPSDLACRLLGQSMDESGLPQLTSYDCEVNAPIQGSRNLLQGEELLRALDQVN
Sequence of Serine/threonine-protein kinase pim-1 (Homo sapiens) (P11309 whole entry, looked up, the tested form may be a part): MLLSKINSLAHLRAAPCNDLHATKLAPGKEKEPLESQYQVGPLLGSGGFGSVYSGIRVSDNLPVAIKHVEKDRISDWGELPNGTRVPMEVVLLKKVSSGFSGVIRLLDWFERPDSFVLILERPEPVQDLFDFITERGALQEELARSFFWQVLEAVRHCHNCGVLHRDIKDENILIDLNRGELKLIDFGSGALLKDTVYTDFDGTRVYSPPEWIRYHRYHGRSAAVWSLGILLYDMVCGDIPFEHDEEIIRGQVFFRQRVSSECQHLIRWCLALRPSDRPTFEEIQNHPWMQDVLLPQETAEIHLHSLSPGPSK

Take `Nc1cc(NS(=O)(=O)c2cccc(C(F)(F)F)c2)cc(-c2cnc3[nH]cc(-c4ccncc4)c3c2)c1`: the Activity is 96% in experiment [1]; 75% in [2]; 85% in experiment [3]; 88% in [4]; 97% in experiment [5]; 100% in [10]. The Activity was 100% in [13]; 100% in [14]; 61% in experiment [15]; 100% in experiment [17]; 1.2% in experiment [19]; 81% in [20]. The Activity result is “Dose-dependent effect” in the experiment on SK-BR-3; 100% in [21]; 64% in [22]; 26% in experiment [23]; 88% in experiment [24]; 90% in experiment [26]. Moreover, the Activity in experiment [27] was 34%; in [30], 100%; in [32] it was 3%; in experiment [33], 69%; in experiment [34] it was 79%; in the experiment on MCF7 [38], “Dose-dependent effect”. Further, the Activity stood at 100% in experiment [39]; 100% in [40]; 50% in experiment [43]; 94% in experiment [44]; 81% in experiment [45]; 100% in experiment [46]. The outcome in the experiment with MCF7 [6], in the experiment on MCF7 [7], in the experiment on MCF7 [8], in the experiment with MCF7 [18], in the experiment with MCF7 [31] and in the experiment on MCF7 [36] was Active. Besides, the outcome with MCF7 [41] was Active. Besides, in the experiment on MCF7 [9], the “growth inhibition (GI)” value was 40%. In addition, the inhibition entry in [11], in experiment [28] and in experiment [37] was “Active” each time. Besides, the inhibition result in the experiment on HUVEC [12], with MCF7 [25] and in the experiment on HUVEC [29] was “Dose-dependent effect” throughout. The IC50 is 4200 nM with MCF7 [16], 145 nM in experiment [35] and 1.67 nM in experiment [42].
In the case of `COc1ccc(-c2c[nH]c3ncc(-c4cccc(NS(=O)(=O)c5ccccc5)c4)cc23)cc1OC`, the Activity turned out to be 31% in experiment [47] and 0.2% in experiment [50]. Also, the dissociation constant (Kd) in [48] worked out at 91 nM; in experiment [49], 2300 nM. For the same compound, in experiment [51], the Selectivity ratio was 25.
Taken in the same sequence, the figures for `Nc1cccc(-c2cnc3[nH]cc(-c4cccnc4)c3c2)c1` were 42%, 0.2%, 75 nM, 4500 nM and 60.
On the same counts, the results for `N#Cc1cccc(-c2cnc3[nH]cc(-c4cccc(N)c4)c3c2)c1` are 48%, 0.65%, 110 nM, 12000 nM and 109.
For the compound `COc1ccc(-c2c[nH]c3ncc(-c4cncc(NS(=O)(=O)c5ccccc5)c4)cc23)cc1OC`, the results for the Activity in experiment [47] and in experiment [50] were 0.05% and 0.8%, respectively. For the same compound, the Kd stood at 145 nM in experiment [48] and 48 nM in [49]. In addition, in experiment [51], the Selectivity ratio was found to be 0.33.
In the case of `Nc1cccc(-c2cnc3[nH]cc(-c4ccncc4)c3c2)c1`, the values for the IC50 (in the experiment with MCF7 [16]; in experiment [42]) were 2300 nM and 42.7 nM, respectively. For the same compound, the Activity in [47] turned out to be 31%; in [50], 0%. Also, the dissociation constant (Kd) in [48] came out at 64 nM; in experiment [49], 2900 nM.
With `COc1ccc(-c2c[nH]c3ncc(-c4cncc(N)c4)cc23)cc1OC`, the Activity in experiment [47] was 12%; in [50], 0.05%. Besides, the Kd in [48] was 58 nM; in experiment [49], 960 nM. In [51], the Selectivity ratio came out at 17.

One may read the IC50 as the concentration at which inhibition is half-maximal. Broadly, the Kd is the concentration at which binding is half-saturated.
